Consider five compounds from patent publication US10711041B2, “Lyophilisate containing a cyclic peptide of formula X1-[sequence]-X2” (priority 2013, dated 2020).

Each structure is given as a SMILES string.

A short description of series [1]: Stability investigation of the lyophilisate (visual inspection, reverse HPLC). Format: physicochemical. As to the method:
For that the lyophilisate was stored up to 24 months at 2 to 8° C. and up to 6 months at 25° C. at 60% relative humidity. Stability was investigated at different time points during that period. In particular the appearance, contents, as well as purity of the cyclic peptides were investigated. For that laboratory-common analytical processes were used, such as e.g. visual inspection and reverse HPLC.

For series [2], the target named is T1, amilorid-sensitive Sodium Ion Channel (ENaC) (Homo sapiens, UniProt P37088).
T1 construct: Macroscopic Sodium Ion Currents were derived from human lung epithelian cells A549; endogenous in cells; host or cells: A549 human lung epithelial cells
T1 sequence (P37088 1-669): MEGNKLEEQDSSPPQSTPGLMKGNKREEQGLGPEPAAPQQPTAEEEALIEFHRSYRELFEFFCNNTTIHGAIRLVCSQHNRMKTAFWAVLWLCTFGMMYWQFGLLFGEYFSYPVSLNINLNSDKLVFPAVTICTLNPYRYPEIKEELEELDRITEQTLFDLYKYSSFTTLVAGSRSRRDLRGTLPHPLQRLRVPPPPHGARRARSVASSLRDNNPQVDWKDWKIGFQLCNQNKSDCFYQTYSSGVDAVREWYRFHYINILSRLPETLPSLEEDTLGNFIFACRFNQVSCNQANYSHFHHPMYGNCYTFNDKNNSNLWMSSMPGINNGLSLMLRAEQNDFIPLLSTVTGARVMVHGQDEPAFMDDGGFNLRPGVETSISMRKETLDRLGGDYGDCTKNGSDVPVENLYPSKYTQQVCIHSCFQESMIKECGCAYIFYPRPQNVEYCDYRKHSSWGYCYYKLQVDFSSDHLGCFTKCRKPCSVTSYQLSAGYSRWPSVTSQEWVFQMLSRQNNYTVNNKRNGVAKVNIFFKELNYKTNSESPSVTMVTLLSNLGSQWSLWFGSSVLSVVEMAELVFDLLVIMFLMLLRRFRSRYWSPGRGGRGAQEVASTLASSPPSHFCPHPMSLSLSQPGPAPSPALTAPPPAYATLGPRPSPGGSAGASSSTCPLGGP
T1 sequence (P51168 1-640 partner): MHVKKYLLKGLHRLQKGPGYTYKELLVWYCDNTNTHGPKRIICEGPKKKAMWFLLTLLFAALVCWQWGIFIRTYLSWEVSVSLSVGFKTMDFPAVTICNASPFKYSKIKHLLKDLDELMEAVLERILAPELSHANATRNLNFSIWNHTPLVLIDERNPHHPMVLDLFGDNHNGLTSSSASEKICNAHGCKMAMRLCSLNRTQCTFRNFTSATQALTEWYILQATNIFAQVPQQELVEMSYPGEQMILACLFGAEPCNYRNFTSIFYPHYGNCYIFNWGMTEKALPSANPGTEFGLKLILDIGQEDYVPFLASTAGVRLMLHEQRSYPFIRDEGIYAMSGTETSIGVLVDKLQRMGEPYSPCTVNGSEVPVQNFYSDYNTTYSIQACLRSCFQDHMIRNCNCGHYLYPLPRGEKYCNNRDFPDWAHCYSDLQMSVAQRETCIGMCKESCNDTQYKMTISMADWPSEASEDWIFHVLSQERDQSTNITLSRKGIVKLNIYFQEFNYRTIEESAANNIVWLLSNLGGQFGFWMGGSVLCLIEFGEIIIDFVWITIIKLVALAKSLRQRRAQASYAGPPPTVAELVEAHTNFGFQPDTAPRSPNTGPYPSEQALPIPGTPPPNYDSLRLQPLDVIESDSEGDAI
T1 sequence (P51170 1-649 partner): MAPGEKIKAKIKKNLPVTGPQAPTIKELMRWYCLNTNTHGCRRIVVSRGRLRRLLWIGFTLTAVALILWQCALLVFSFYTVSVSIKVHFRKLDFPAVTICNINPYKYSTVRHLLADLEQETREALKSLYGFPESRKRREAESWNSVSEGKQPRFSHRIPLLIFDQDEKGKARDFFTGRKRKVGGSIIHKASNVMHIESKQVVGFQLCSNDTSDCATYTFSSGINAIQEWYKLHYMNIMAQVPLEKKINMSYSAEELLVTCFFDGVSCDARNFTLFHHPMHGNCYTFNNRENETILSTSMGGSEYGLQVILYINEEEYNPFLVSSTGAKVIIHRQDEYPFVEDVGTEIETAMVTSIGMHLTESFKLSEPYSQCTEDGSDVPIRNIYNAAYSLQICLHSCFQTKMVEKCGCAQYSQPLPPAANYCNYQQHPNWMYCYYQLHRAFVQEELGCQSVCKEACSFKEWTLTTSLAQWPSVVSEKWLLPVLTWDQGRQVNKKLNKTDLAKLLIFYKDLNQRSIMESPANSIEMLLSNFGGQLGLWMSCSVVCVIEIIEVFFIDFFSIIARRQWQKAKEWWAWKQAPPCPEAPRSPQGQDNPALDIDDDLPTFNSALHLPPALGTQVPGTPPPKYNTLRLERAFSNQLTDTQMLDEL
Nature of the series: Patch Clamp whole cell sodium current in deglycosylated (PNGase F) and untreated A549 cells. It is filed as cell-based. To be noted: pre-treatment with PNGase F, peptide 240 nM, Eh = −100 mV. As to the method: […] After control recordings, 240 nM of the peptide of amino acid sequence SEQ ID NO:1 was added to the bath solution. […] Whole cell currents were recorded at Eh=−100 mV. The concentration of the peptides of amino acid sequence SEQ ID NO:1 to SEQ ID NO:7 in the bath solution was 240 nM.
(Patch clamp records ionic current or voltage across a cell membrane.)

[3] abbreviates: storage 2-8° C., T = 0 to T = 24 M.
[4] abbreviates: storage 25° C./60% rH, T = 0 to T = 6 M.

`C[C@@H]1NC(=O)CNC(=O)[C@H](CCC(=O)O)NC(=O)[C@@H]2CCCN2C(=O)[C@H]([C@@H](C)O)NC(=O)[C@H](CCC(=O)O)NC(=O)[C@H](CCCNC(=N)N)NC(=O)[C@H](CCC(N)=O)NC(=O)CNC(=O)[C@@H]2CCCN2C(=O)[C@H](CO)NC(=O)[C@@H](N)CCCCNC(=O)CC[C@@H](C(=O)O)NC(=O)[C@H](Cc2ccc(O)cc2)NC(=O)[C@H](Cc2c[nH]c3ccccc23)NC(=O)[C@@H]2CCCN2C(=O)[C@H](CCCCN)NC(=O)[C@H](C)NC(=O)[C@H](CCC(=O)O)NC1=O` [SEQ ID NO: 2]: the Amount/Contents of lyophilisate in series [1] (storage 2-8° C., T = 0) came out at 100%; in series [1] (storage 2-8° C., T = 24 M), 99%; in series [1] (storage 25° C./60% rH, T = 0), 100%; in series [1] (storage 25° C./60% rH, T = 6 M) it was 99%. The “Purity of lyophilisate (stability study)” value in series [1] (storage 2-8° C., T = 0) was 96%; in series [1] (storage 2-8° C., T = 24 M) it was 96%; in series [1] (storage 25° C./60% rH, T = 0), 96%; in series [1] (storage 25° C./60% rH, T = 6 M), 95%. Further, the Appearence of lyophilisate result in series [1] (setting [3]) and in series [1] (setting [4]) was “white powder” in each case. The “whole cell sodium current” value in series [2] is on record as 21.3 pA (n = 3).
In the case of `C[C@@H]1NC(=O)CNC(=O)[C@H](CCC(=O)O)NC(=O)[C@@H]2CCCN2C(=O)[C@H]([C@@H](C)O)NC(=O)[C@H](CCC(=O)O)NC(=O)[C@H](CCCNC(=N)N)NC(=O)[C@H](CCC(N)=O)NC(=O)CNC(=O)[C@@H](N)CCCCNC(=O)CNC(=O)[C@H](Cc2ccc(O)cc2)NC(=O)[C@H](Cc2c[nH]c3ccccc23)NC(=O)[C@@H]2CCCN2C(=O)[C@H](CCCCN)NC(=O)[C@H](C)NC(=O)[C@H](CCC(=O)O)NC1=O` [SEQ ID NO: 3], the Amount/Contents of lyophilisate in series [1] (storage 2-8° C., T = 0) was found to be 100%; in series [1] (storage 2-8° C., T = 24 M) it was 99%; in series [1] (storage 25° C./60% rH, T = 0), 100%; in series [1] (storage 25° C./60% rH, T = 6 M) it was 99%. In addition, the “Purity of lyophilisate (stability study)” value in series [1] (storage 2-8° C., T = 0) is listed as 98%; in series [1] (storage 2-8° C., T = 24 M) it was 98%; in series [1] (storage 25° C./60% rH, T = 0), 98%; in series [1] (storage 25° C./60% rH, T = 6 M), 97%. The Appearence of lyophilisate entry in series [1] (setting [3]) and in series [1] (setting [4]) was “white powder” each time. The “whole cell sodium current” value in series [2] is 20.6 pA (n = 3).
For `C[C@@H]1NC(=O)CNC(=O)[C@H](CCC(=O)O)NC(=O)[C@@H]2CCCN2C(=O)[C@H]([C@@H](C)O)NC(=O)[C@H](CCC(=O)O)NC(=O)[C@H](CCCNC(=N)N)NC(=O)[C@H](CCC(N)=O)NC(=O)CNC(=O)[C@@H](N)CCCNC(=O)CNC(=O)[C@H](Cc2ccc(O)cc2)NC(=O)[C@H](Cc2c[nH]c3ccccc23)NC(=O)[C@@H]2CCCN2C(=O)[C@H](CCCCN)NC(=O)[C@H](C)NC(=O)[C@H](CCC(=O)O)NC1=O` [SEQ ID NO: 4], the Amount/Contents of lyophilisate in series [1] (storage 2-8° C., T = 0) is recorded as 100%; in series [1] (storage 2-8° C., T = 24 M) it was 99%; in series [1] (storage 25° C./60% rH, T = 0) it was 100%; in series [1] (storage 25° C./60% rH, T = 6 M), 99%. In addition, the “Purity of lyophilisate (stability study)” value in series [1] (storage 2-8° C., T = 0) is reported as 97%; in series [1] (storage 2-8° C., T = 24 M), 97%; in series [1] (storage 25° C./60% rH, T = 0), 97%; in series [1] (storage 25° C./60% rH, T = 6 M), 96%. The Appearence of lyophilisate entry in series [1] (setting [3]) and in series [1] (setting [4]) was “white powder” throughout. Besides, in series [2], the “whole cell sodium current” value is reported as 22.5 pA (n = 3).
`C[C@@H]1NC(=O)CNC(=O)[C@H](CCC(=O)O)NC(=O)[C@@H]2CCCN2C(=O)[C@H]([C@@H](C)O)NC(=O)[C@H](CCC(=O)O)NC(=O)[C@H](CCCNC(=N)N)NC(=O)[C@H](CCC(N)=O)NC(=O)CNC(=O)CCCNC(=O)C[C@@H](C(=O)O)NC(=O)[C@H](Cc2ccc(O)cc2)NC(=O)[C@H](Cc2c[nH]c3ccccc23)NC(=O)[C@@H]2CCCN2C(=O)[C@H](CCCCN)NC(=O)[C@H](C)NC(=O)[C@H](CCC(=O)O)NC1=O` [SEQ ID NO: 5]: the Amount/Contents of lyophilisate in series [1] (storage 2-8° C., T = 0) amounted to 100%; in series [1] (storage 2-8° C., T = 24 M), 99%; in series [1] (storage 25° C./60% rH, T = 0) it was 100%; in series [1] (storage 25° C./60% rH, T = 6 M) it was 99%. Further, the “Purity of lyophilisate (stability study)” value in series [1] (storage 2-8° C., T = 0) was 99%; in series [1] (storage 2-8° C., T = 24 M) it was 99%; in series [1] (storage 25° C./60% rH, T = 0), 99%; in series [1] (storage 25° C./60% rH, T = 6 M) it was 98%. The Appearence of lyophilisate entry in series [1] (setting [3]) and in series [1] (setting [4]) was “white powder” each time. The “whole cell sodium current” value in series [2] is reported as 22.4 pA (n = 3).
With `C[C@@H]1NC(=O)CNC(=O)[C@H](CCC(=O)O)NC(=O)[C@@H]2CCCN2C(=O)[C@H]([C@@H](C)O)NC(=O)[C@H](CCC(=O)O)NC(=O)[C@H](CCCNC(=N)N)NC(=O)[C@H](CCC(N)=O)NC(=O)CNC(=O)CCNC(=O)CC[C@@H](C(=O)O)NC(=O)[C@H](Cc2ccc(O)cc2)NC(=O)[C@H](Cc2c[nH]c3ccccc23)NC(=O)[C@@H]2CCCN2C(=O)[C@H](CCCCN)NC(=O)[C@H](C)NC(=O)[C@H](CCC(=O)O)NC1=O` [SEQ ID NO: 6], the Amount/Contents of lyophilisate in series [1] (storage 2-8° C., T = 0) came out at 100%; in series [1] (storage 2-8° C., T = 24 M) it was 99%; in series [1] (storage 25° C./60% rH, T = 0), 100%; in series [1] (storage 25° C./60% rH, T = 6 M) it was 99%. Further, the “Purity of lyophilisate (stability study)” value in series [1] (storage 2-8° C., T = 0) came to 99%; in series [1] (storage 2-8° C., T = 24 M), 99%; in series [1] (storage 25° C./60% rH, T = 0) it was 99%; in series [1] (storage 25° C./60% rH, T = 6 M), 98%. The Appearence of lyophilisate entry in series [1] (setting [3]) and in series [1] (setting [4]) was “white powder” in each case. Besides, in series [2], the “whole cell sodium current” value is on record as 19.9 pA (n = 3).
